Laboratory results taken from patent US20090304823A1, “NUTRITIONAL COMPOSITIONS FOR PROMOTION OF BONE GROWTH AND MAINTENANCE OF BONE HEALTH AND METHODS REGARDING SAME” (NESTEC S.A., priority 2006, published 2009).

Key:
[1] = tested on: neonatal murine calvarial bones; assay: Calvaria organ culture in vitro, bone formation; type: cell-based
Method: (v) Final injection in vivo of “hit” extract into mouse calvaria bones and monitoring of bone area and thickness. Extracts were assessed in a 4-day in vitro neonatal murine calvarial assay. Bones were incubated with the extracts for the entire 4 days.

BMP-2 = BMP-2 gene reporter assay (high throughput screen); type: cell-based
Method: BMP-2 gene reporter assay (high throughput screen) (i) BMP-2 high throughput gene reporter assay of non-hydrolyzed MeOH/H2O extracts (1a) and corresponding glycosidase hydrolyzed extract in ethyl acetate (1b). Extracts were tested twice at concentrations of 1 to 100 μg/ml, diluted in culture medium from plant extract stocks prepared as 50 mg/ml in DMSO. (ii) Extracts positive in the BMP-2 screen were prepared de novo and screened again with dose-response to confirm as “hits”. (iii) BMP-2 testing of subfractionation of positives/hits and candidate pure compounds

osteoblast cells = assay: Alkaline phosphatase assay in osteoblast cells (osteoblast differentiation); type: cell-based
OPG/RANKL = assay: Osteoblast/osteoclast co-culture system, cytokine regulation; type: cell-based
Method: For example, at least 3 phenolics (e.g. eupafolin, carnosol, scutellarein) may contribute to the anabolic potential of the rosemary extract. Additional phenolics of rosemary include genkwanin, kaempferol, acacetin. The rosemary plant extracts and pure compounds were tested in an osteoblast/osteoclast co-culture system.

[2] = tested on: bovine articular cartilage explants; assay: Cytokine-induced collagen degradation in articular cartilage explants; type: cell-based; conditions: 1 or 5 μM; FIG. 9C
Source text: (vii) Effects on cytokine-induced type II collagen degradation, MMP-mediated aggrecan degradation and aggrecanase-mediated degradation in bovine articular cartilage explants.
We investigated here whether 2 different rosemary extracts and carnosol, one of the main components of this extract, could inhibit the degradation of collagen and aggrecan in cultured explants of articular cartilage. Explants from healthy bovine articular cartilage were put in culture. However, such explants naturally display a very low catabolic activity which is not ideal to test the anti-catabolic activity of potential bioactives. To improve the sensitivity of the assay, the explants are cultured in presence of 2 pro-inflammatory cytokines, TNF-α and oncostatin known to act together as potent inducers of MMP and aggrecanase activities.

Osteopontin (OPN) mRNA = assay: OPN mRNA induction by real-time PCR in hPOBtert osteoblasts; type: cell-based, human; conditions: hPOBtert cells, 48 h; FIG. 10
Method: Cell culture—HPOBTert osteoblasts were seeded on collagen-coated plates and grown in MEM Eagle α Modification medium supplemented with 10% fetal bovine serum, 1% L-glutamine and penicillin/streptomycin, 1 mM β-glycerolphosphate and 50 μg/ml ascorbic acid in a humidified atmosphere of 5% CO2, and 95% air at 37° C. When carnosol and inhibitors were added, an equivalent amount of Me2SO was used as a vehicle control. Analysis of mRNA levels by Real-Time PCR—Total cellular RNA was extracted using the NucleoSpin RNA II kit (Macherey-Nagel, Switzerland). Equal amounts (1 μg) of RNA from the different treatments were reverse-transcribed using the First Strand cDNA Synthesis kit for RT-PCR (Roche, Mannheim, Germany). For each sample, 2 μl 10× reaction buffer, 4 μl 25 mM MgCl2, 2 μl nucleotide mix, 2 μl random primers, 1 μl RNAse inhibitor and 0.4 μl AMV reverse transcriptase from the kit were added to the sample. The reverse transcriptase was performed at the following thermal cycling conditions (25° C. for 10 min, 42 C for 60 min, and 75° C. for 5 min) using the PTC-100TM Concept, Switzerland). Real-time Quantitative PCR—Quantitative PCR was performed in 25 μl in triplicates. This consisted of 12.5 μl of Taqman 2× Universal PCR Master Mix, 1.25 μl Assay-on-Demand primers and probes (Applied Biosystems, USA) and 6.25 μl RNAse free water. […]

NQO1 = NQO1 induction, immunoblot of hPOBtert cell extracts; type: cell-based, human; conditions: hPOBtert cells; FIG. 11
Method: Preparation of cytoplasmic extracts—hPOBtert cells were washed two times with cold phosphate-buffered saline and harvested with lysis buffer (1% Triton X-100, 20 mM Tris/HCL pH 8, 137 mM Nacl, 10% Glycerol, 2 mM EDTA pH 8, and freshly added proteinase inhibitors: 1 mM phenylmethylsulfonylfluoride, 0.15 U/ml Aprotinin, 10 μg/ml Leupeptide and 10 μg/ml Pepstatin). The samples were centrifuged at 13000 rpm, 4° C. for 5 min and the supernatant transferred to a fresh tube. The protein concentration was determined using the BioRad protein assay. Approximately 50 μg of each sample were mixed with a suitable volume of sample buffer, denatured for 5 min at 95° C. together with 5 μl protein standard, chilled on ice, and loaded on a 10% ready gel, and submitted to immunoblot analysis using anti-NQO1 antibodies.
Immunoblotting—50 μg of protein cell lysate were resolved by SDS-PAGE. After electrophoresis, proteins were transferred to a PVDF membrane (Invitrogen) according to the manufacturer's protocol. Membranes probed for OPN and NQO1 were blocked and probed in 5% milk in Tris-buffered saline/Tween (20 mM Tris base, pH 7.6, 137 mM, 0.1% Tween 20). The blots were visualised by chemiluminescence development, Western blotting detection system (Amersham Biosciences).
Antibodies—The NQO1 (sc-16464)-specific antibodies were purchased from Santa Cruz Biotechnologies Inc (Santa Cruz, Calif.). […]

## O=c1c(O)c(-c2ccc(O)cc2)oc2cc(O)cc(O)c12 [Kaempferol]
[1]; 10 μM
  Bone formation in organ culture: Slight at 10 μM
BMP-2; 1-10 μM
  BMP-2 induction: 2.5X
Osteoblast cells; 2.5-10 μM
  ALP activity induction: 2-4X

## COc1cc(O)c2c(=O)cc(-c3ccc(O)cc3)oc2c1 [V, Genkwanin]
BMP-2; 5 μM
  BMP-2 induction: 4X
Osteoblast cells; 10 μM
  ALP activity induction: 1.5X

## O=c1cc(-c2ccc(O)cc2)oc2cc(O)c(O)c(O)c12 [IX, Scutellarein]
BMP-2; 5, 10 μM
  BMP-2 induction: 3-4X
Osteoblast cells; 10 μM
  ALP activity induction: 2X

## COc1c(O)cc2oc(-c3ccc(O)c(O)c3)cc(=O)c2c1O [Eupafolin]
OPG/RANKL
  regulation of the key cytokines controlling bone remodelling, OPG/RANKL: activity for regulation
BMP-2; 2.5-10 μM
  BMP-2 induction: 3-8X
Osteoblast cells; 5 μM
  ALP activity induction: 2 X
Osteoblast cells; 10 μM
  ALP activity induction: 4 X

## COc1ccc(-c2cc(=O)c3c(O)cc(O)cc3o2)cc1 [Acacetin]
BMP-2; 5-10 μM
  BMP-2 induction: 3-5X
Osteoblast cells; 5-10 μM
  ALP activity induction: 2X

## CC(C)c1cc2c(c(O)c1O)[C@@]13CCCC(C)(C)[C@@H]1C[C@@H]2OC3=O [VII, Carnosol]
OPG/RANKL
  regulation of the key cytokines controlling bone remodelling, OPG/RANKL: activity for regulation
[2]
  cytokine induced collagen degradation: inhibited
[1]; 2.5 μM
  Bone formation in organ culture: Slight BF for 2.5 μM
[1]; 5, 10 μM
  Bone formation in organ culture: Good BF for 5, 10 μM
Osteopontin (OPN) mRNA
  OPN expression (OPN mRNA levels): induce OPN expression dose-dependently
BMP-2; 2.5-10 μM
  BMP-2 induction: 4.5-7X
BMP-2; compounds isolated from rosemary extract 2188
  BMP- Activity: YES
NQO1
  expression of the phase II enzyme NQO1: induces the expression
Osteoblast cells; 2.5-10 μM
  ALP activity induction: 2X
